According to article PMC7067268, “Biosynthesis of plant tetrahydroisoquinoline alkaloids through an imine reductase route” (Chemical Science, 2019):
Where two headings read alike, the source gives them in different places.

Key:
[1] = tested on: IR45; assay: imine reduction kinetics; details: read-out: IR45 / K m; NADPH-dependent
[2] = tested on: IR45; assay: imine reduction kinetics; details: read-out: F190L-W191F / K m; NADPH-dependent
[3] = tested on: IR45; assay: imine reduction kinetics; details: read-out: F190M-W191F / K m; NADPH-dependent
[4] = tested on: COc1cc2c(cc1OC)[C@H](c1ccc3c(c1)OCO3)NCC2; assay: purified protein; details: co-substrate S-adenosylmethionine
[5] = tested on: COc1ccc(C[C@@H]2NCCc3cc(OC)c(OC)cc32)cc1OC; assay: purified protein; details: co-substrate S-adenosylmethionine

| Km [1] | Km [2] | Km [3] | Molecule | Km [4] | kcat [4] | Km [5] | kcat [5] |
| --- | --- | --- | --- | --- | --- | --- | --- |
| 154 µM | 123 µM | 108 µM | COc1cc2c(cc1OC)C(c1ccc3c(c1)OCO3)=NCC2 [1a] | – | – | – | – |
| – | 307 µM | – | COc1ccc(C2=NCCc3cc(OC)c(OC)cc32)cc1OC [2a] | – | – | – | – |
| – | 372 µM | – | COc1cc2c(cc1OC)C(c1cc(OC)c(OC)c(OC)c1)=NCC2 [3a] | – | – | – | – |
| 148 µM | 252 µM | 251 µM | COc1cc2c(cc1OC)C(Cc1ccccc1)=NCC2 [4a] | – | – | – | – |
| – | – | – | Coclaurine N-methyltransferase (CNMT) (Coptis japonica) | 806 ± 198 µM | 0.098 ± 0.031 s⁻¹ | 807 ± 208 µM | 0.296 ± 0.042 s⁻¹ |

| Molecule | Km [1] | Km [2] | Km [3] | Km [4] | kcat [4] | Km [5] | kcat [5] |
| --- | --- | --- | --- | --- | --- | --- | --- |
| COc1ccc(CC2=NCCc3cc(OC)c(OC)cc32)cc1OC [5a] | 518 µM | 353 µM | 178 µM | – | – | – | – |
